Laboratory results reported in article PMC10178166, “NanoLuc Luciferase as a Fluorogen-Activating Protein for GFP Chromophore Based Fluorogens” (International Journal of Molecular Sciences, 2023).
Like-named read-outs stand apart in the source and are kept apart here.

Target: T1, NanoLuc (Oplophorus gracilirostris, UniProt Q9GV45, A31E/A60N/A81I/F95D/I117V/K70R/L54V/L99Q/M102K/N193R/P142E/Q151K/Q38R/Q45L/V71I/Y165I)
T1 construct: Engineered 19 kDa subunit variant (NanoLuc, about 171 residues, no signal peptide)
Assay: spectrofluorometric titration
Assay type: binding
Text: spectrofluorometric titration on NanoLuc

T1 sequence (Q9GV45 28-196 with the stated changes): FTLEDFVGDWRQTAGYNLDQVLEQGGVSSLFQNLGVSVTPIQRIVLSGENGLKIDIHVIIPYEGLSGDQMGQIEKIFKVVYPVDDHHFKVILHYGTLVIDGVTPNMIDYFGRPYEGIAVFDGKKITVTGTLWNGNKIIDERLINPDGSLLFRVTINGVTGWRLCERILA

Compound O=C1/C(=C/c2ccc[nH]2)N=C(/C=C/c2ccccc2)N1Cc1ccccc1 (mixture of isomers) [4bc] has a Kd (read-out: [drawing 2] / [drawing 5] / 4bc) of 590 ± 40 nM.

For O=C1/C(=C/c2ccc[nH]2)N=C(/C=C/c2cccs2)N1Cc1ccccc1 (mixture of isomers) [4bh], the Kd (read-out: [drawing 2] / [drawing 4] / 4bh) was 320 ± 20 nM.

Work on O=C1/C(=C/c2ccc[nH]2)N=C(/C=C/c2ccccc2)N1CCc1ccc(O)cc1 (mixture of isomers) [4cc] yielded a Kd (read-out: [drawing 3] / [drawing 7] / 4cc) of 550 ± 40 nM.
